Read-outs that look alike come from different tables or passages of the source.
Key:
Format in all cases: cell-based
[1] = target: T1, CaV3.1 (Homo sapiens, UniProt O43497); experiment: High-throughput CaV3.1 T-type FLIPR fluorescent assay; conditions: Fluo-4 FLIPR
T1 construct: expressed in transfected cells; host or cells: unnamed doxycycline-inducible cell line
How it was run: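 Doxycycline-induced CaV3.1 cells were loaded with Fluo-4 at 29 °C and pre-incubated with compound for 20 min at 29 °C in low-Ca2+ buffer (0.001 mM CaCl2, pH 7.2). Calcium entry was triggered by buffer containing 6 mM CaCl2, and Fluo-4 fluorescence was recorded on FLIPR for 3 min. IC50 came from logistic fits.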

[2] = target: T2, CaV2.2 (Homo sapiens, UniProt Q00975); experiment: High-throughput CaV2.2/Kir2.3 FLIPR fluorescent assay; conditions: Fluo-4 FLIPR, closed or inactivated state not stated, read-out: FLIPR data CaV2.2
T2 construct: expressed in transfected cells; host or cells: unnamed doxycycline-inducible cell line
How it was run: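 IC50 was derived by logistic fitting of the FLIPR Fluo-4 signal recorded over 3 min after a 130 mM KCl stimulus. Before stimulation, cells (channel expression induced with doxycycline, 29 °C on assay day) were kept in pH 7.4 buffer with 2 mM KCl for the closed-state format or 12.5 mM KCl for the inactivated-state format.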

[3] = target: T3, CaV3.2 (Homo sapiens, UniProt O95180); experiment: High-throughput CaV3.2/Kir2.3 T-type FLIPR fluorescent assay; conditions: Fluo-4 FLIPR, closed or inactivated state not stated
T3 construct: expressed in transfected cells; host or cells: unnamed doxycycline-inducible cell line
T3 sequence (O95180 whole entry): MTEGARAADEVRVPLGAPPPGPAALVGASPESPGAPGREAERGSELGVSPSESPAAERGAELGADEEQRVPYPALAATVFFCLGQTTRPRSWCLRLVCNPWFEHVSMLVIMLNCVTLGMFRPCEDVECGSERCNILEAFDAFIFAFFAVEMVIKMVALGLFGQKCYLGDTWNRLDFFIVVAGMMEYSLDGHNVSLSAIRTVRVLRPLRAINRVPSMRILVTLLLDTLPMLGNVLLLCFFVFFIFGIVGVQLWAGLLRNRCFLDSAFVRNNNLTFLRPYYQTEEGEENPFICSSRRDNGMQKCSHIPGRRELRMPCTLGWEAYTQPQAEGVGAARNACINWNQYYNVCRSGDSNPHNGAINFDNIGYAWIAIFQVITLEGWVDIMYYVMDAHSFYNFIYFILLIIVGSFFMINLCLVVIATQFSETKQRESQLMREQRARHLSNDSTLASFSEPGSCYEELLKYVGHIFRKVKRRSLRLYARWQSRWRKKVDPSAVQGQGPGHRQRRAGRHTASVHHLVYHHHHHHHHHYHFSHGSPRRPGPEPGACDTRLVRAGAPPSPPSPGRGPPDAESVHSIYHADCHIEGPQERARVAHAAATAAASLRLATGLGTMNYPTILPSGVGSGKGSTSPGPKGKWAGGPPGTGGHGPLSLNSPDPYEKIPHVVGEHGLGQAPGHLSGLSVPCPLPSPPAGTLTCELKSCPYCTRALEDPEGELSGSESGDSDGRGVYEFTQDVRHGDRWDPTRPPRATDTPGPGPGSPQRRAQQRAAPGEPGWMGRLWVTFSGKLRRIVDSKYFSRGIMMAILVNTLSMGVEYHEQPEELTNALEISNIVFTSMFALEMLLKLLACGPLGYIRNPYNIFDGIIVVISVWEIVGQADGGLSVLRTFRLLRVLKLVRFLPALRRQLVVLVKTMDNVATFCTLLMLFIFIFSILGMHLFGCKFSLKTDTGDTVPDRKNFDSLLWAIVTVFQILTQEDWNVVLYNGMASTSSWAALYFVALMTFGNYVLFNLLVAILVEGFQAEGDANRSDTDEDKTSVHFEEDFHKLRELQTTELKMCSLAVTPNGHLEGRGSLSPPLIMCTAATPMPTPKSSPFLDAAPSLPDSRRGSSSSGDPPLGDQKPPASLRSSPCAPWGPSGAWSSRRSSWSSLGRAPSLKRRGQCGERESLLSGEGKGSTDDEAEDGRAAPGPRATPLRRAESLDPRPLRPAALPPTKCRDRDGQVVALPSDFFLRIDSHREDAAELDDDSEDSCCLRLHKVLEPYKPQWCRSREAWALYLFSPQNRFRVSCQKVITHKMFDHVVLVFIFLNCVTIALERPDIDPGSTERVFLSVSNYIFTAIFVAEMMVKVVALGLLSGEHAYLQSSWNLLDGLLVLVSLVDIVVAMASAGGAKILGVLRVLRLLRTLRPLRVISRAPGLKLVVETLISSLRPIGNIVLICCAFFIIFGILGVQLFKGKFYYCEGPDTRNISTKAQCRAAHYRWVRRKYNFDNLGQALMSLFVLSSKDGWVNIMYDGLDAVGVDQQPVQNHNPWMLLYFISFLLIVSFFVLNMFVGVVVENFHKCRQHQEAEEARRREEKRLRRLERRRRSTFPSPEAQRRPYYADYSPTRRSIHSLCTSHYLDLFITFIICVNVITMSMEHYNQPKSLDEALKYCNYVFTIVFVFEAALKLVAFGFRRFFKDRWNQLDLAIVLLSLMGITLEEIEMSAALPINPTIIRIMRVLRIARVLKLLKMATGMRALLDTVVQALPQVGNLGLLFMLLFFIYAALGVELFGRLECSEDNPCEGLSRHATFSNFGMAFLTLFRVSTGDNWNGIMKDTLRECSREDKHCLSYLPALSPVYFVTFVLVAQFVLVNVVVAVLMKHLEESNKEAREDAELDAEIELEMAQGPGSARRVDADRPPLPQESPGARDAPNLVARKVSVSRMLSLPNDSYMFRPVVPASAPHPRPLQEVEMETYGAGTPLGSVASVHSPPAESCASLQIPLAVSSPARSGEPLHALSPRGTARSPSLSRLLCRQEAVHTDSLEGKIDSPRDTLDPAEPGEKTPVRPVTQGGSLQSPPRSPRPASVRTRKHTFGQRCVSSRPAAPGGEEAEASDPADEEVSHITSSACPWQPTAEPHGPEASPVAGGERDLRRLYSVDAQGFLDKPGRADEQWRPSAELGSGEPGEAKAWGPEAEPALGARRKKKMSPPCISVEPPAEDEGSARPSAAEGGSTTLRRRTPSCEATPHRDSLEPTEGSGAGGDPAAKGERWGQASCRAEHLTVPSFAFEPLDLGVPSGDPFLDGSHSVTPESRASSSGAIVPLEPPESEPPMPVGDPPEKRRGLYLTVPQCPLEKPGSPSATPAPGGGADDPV
How it was run: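 Doxycycline-induced cells loaded with Fluo-4, preincubated 20 min at 29°C with compound in 2 mM KCl (closed-state) or 7.6 mM KCl (inactivated-state) buffer, pH 7.4. Calcium entry triggered by 12 mM or 14.5 mM KCl respectively; fluorescence read 3 min by FLIPR, IC50 from logistic fit.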

T1 sequence (O43497 whole entry): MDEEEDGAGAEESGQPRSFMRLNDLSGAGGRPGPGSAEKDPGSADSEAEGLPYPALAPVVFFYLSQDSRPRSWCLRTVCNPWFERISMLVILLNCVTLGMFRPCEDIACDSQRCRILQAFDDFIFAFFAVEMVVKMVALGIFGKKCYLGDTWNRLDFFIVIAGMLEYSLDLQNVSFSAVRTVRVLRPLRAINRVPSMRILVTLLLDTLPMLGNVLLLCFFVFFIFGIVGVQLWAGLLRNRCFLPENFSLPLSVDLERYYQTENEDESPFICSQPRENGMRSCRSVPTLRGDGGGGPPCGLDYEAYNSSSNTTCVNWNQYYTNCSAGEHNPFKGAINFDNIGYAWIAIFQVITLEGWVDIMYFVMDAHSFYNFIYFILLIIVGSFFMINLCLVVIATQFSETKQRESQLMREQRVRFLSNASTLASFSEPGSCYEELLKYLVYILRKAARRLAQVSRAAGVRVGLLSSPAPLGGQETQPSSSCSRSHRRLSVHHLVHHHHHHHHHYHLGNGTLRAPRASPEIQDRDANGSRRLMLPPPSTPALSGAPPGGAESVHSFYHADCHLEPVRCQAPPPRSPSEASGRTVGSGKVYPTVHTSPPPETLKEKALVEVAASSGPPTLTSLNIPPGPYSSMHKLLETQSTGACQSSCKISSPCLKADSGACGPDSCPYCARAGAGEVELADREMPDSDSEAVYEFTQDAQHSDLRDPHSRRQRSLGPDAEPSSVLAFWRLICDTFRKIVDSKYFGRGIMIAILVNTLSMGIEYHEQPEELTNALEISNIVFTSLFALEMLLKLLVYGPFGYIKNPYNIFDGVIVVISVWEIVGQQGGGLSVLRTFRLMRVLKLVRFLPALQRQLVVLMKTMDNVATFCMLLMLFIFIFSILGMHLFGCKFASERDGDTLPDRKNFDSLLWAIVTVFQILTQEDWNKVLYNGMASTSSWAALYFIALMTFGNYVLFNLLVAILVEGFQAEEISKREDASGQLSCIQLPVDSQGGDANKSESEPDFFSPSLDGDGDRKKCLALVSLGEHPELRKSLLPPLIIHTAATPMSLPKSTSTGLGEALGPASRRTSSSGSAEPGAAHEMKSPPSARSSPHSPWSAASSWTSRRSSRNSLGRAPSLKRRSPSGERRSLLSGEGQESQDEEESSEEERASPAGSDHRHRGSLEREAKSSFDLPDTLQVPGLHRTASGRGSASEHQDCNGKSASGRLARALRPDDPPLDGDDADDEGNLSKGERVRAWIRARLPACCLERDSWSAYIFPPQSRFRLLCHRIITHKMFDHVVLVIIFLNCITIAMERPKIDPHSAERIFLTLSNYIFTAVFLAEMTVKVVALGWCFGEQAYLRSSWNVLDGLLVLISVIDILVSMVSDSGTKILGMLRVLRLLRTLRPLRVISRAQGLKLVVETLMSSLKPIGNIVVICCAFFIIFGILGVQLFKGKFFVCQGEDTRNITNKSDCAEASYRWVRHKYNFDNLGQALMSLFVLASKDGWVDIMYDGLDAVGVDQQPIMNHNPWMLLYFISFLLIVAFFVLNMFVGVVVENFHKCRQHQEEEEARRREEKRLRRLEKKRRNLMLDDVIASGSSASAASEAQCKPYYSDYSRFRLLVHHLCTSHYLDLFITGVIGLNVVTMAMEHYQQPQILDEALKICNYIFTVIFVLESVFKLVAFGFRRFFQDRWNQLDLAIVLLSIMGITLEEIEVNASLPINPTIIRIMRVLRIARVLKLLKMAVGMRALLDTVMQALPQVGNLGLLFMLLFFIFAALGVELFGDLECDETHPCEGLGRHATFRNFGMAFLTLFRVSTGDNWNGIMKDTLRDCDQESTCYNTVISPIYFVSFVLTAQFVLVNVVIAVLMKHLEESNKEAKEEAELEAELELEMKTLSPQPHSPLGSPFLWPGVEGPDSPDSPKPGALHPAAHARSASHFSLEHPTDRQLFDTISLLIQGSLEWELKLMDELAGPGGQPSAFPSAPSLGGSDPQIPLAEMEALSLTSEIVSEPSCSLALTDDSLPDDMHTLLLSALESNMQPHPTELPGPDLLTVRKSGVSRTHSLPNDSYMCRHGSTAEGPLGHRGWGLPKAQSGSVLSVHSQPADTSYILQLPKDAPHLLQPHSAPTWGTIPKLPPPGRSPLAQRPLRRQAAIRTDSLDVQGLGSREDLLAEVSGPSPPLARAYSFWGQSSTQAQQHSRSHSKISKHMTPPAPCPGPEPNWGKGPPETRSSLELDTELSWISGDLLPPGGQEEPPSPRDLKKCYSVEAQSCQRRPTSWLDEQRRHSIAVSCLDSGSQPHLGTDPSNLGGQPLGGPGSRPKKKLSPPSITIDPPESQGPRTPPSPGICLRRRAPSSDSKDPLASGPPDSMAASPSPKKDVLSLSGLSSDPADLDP

Row | Compound | IC50 ([1]; Table 4) [nM] | IC50 ([2]; Table 4) [nM] | IC50 ([3]; Table 4) [nM] | IC50 ([1]; Table 5) [nM] | IC50 ([2]; Table 5) [nM] | IC50 ([3]; Table 5) [nM]
1 | O=C(NCc1ccc(S(=O)(=O)c2cccc(C(F)(F)F)c2)cc1)c1cn2cc(C(F)(F)F)ccc2n1 [Compound 13, 6-(trifluoromethyl)-N-(4-((3-(trifluoromethyl)phenyl)sulfonyl)benzyl)imidazo[1,2-a]pyridine-2-carboxamide] | 2020 | 300 | 740 | – | – | –
2 | CC(C)(C(=O)N1CCN(c2cc(Cl)cc(Cl)c2)CC1)S(=O)(=O)c1cccc(C(F)(F)F)c1 [Compound 134, 1-(4-(3,5-dichlorophenyl)piperazin-1-yl)-2-methyl-2-((3-(trifluoromethyl)phenyl)sulfonyl)propan-1-one] | – | – | – | 8690 | 1160 | 7580
3 | CC(C)(C(=O)Nc1ccc(Oc2ccc(F)c(Cl)c2)nc1)S(=O)(=O)c1cccc(OC(F)(F)F)c1 [Compound 121, N-(6-(3-chloro-4-fluorophenoxy)pyridin-3-yl)-2-methyl-2-((3-(trifluoromethoxy)phenyl)sulfonyl)propanamide] | – | – | – | 4900 | 660 | 1150
4 | CC(C)(C(=O)NC1CCN(c2ccc(C(F)(F)F)cc2)CC1)S(=O)(=O)c1cccc(C(F)(F)F)c1 [Compound 137, 2-methyl-N-(1-(4-(trifluoromethyl)phenyl)piperidin-4-yl)-2-((3-(trifluoromethyl)phenyl)sulfonyl)propanamide] | – | – | – | 4530 | 1610 | 3000

— patent US20140113898A1, “BISARYLSULFONE AND DIALKYLARYLSULFONE COMPOUNDS AS CALCIUM CHANNEL BLOCKERS” (Zalicus Pharmaceuticals Ltd., priority 2010, published 2014)
